The record followed here is patent publication US7504403B2, “Substituted heterocyclic compounds and methods of use” (Amgen Inc., priority 2004, dated 2009).

Where only a bound is given, the exact number is not on record here.

As a reminder, the IC50 is the concentration at which inhibition is half-maximal.

In this test the test system is LPS induced TNF release. As to the kind of experiment: Lipopolysaccharide-Activated THP1 Cell TNF Production Assay. The class given is cell-based. The conditions noted are these: Homo sapiens, THP-1. How it is done: Lipopolysaccharide-Activated THP1 Cell TNF Production Assay
THP1 cells are resuspended in fresh THP1 media (RPMI 1640, 10% heat-inactivated FBS, 1×PGS, 1×NEAA, plus 30 μM βME) at a concentration of 1E6/mL. One hundred microliters of cells per well are plated in a polystyrene 96-well tissue culture. One microgram per mL of bacterial LPS is prepared in THP1 media and is transferred to the wells. Test compounds are dissolved in 100% DMSO and are serially diluted 3 fold in a polypropylene 96-well microtiter plate (drug plate). HI control and LO control wells contain only DMSO. One microliter of test compound from the drug plate followed by 10 μL of LPS are transferred to the cell plate. The treated cells are induced to synthesize and secrete TNF-α at 37° C. for 3 h. Forty microliters of conditioned media are transferred to a 96-well polypropylene plate containing 110 μL of ECL buffer (50 mM Tris-HCl pH 8.0, 100 mM NaCl, 0.05% Tween 20, 0.05% NaN3 and 1%FBS) supplemented with 0.44 nM MAB610 monoclonal Ab (R&D Systems), 0.34 nM ruthenylated AF210NA polyclonal Ab (R&D Systems) and 44 μg/mL sheep anti-mouse M280 Dynabeads (Dynal). After a 2 h incubation at room temperature with shaking, the reaction is read on the ECL M8 Instrument (IGEN Inc.). A low voltage is applied to the ruthenylated TNF-α immune complexes, which in the presence of TPA (the active component in Origlo), results in a cyclical redox reaction generating light at […]. The amount of secreted TNF-α in the presence of compound compared with that in the presence of DMSO vehicle alone (HI control) is calculated using the formula: % control (POC)=(cpd−average LO)/(average HI−average LO)*100. Data (consisting of POC and inhibitor concentration in μM) is fitted to a 4-parameter equation (y=A+((B−A)/(1+((x/C)^D))), where A is the minimum y (POC) value, B is the maximum y (POC), C is the x (cpd concentration) at the point of inflection and D is the slope factor) using a Levenburg-Marquardt non-linear regression algorithm.

On to `C[C@H](Cc1cccc(CN)c1)Nc1nccc(N2CCCn3c2nc(-c2ccccc2)cc3=O)n1` [9-{2-[2-(3-aminomethyl-phenyl)-1(R)-methyl-ethylamino]-pyrimidin-4-yl}-2-phenyl-6,7,8,9-tetrahydro-pyrimido[1,2-a]pyrimidin-4-one], for which the IC50 is no more than 20 µM.
For the compound `Cc1ccc(-c2cc(=O)n3c(n2)N(c2ccnc(N[C@@H](C)c4ccccc4)n2)CCC3)cc1C` [Example 1, 2-(3,4-Dimethyl-phenyl)-9-[2-(1(S)-phenyl-ethylamino) -pyrimidin-4-yl]-6,7,8,9-tetrahydro-pyrimido[1,2-a]pyrimidin-4-one], the IC50 is no more than 20 µM.
For `C[C@H](Nc1nccc(N2CCCn3c2nc(-c2ccccc2F)cc3=O)n1)c1ccccc1` [Example 2, 2-(2-fluorophenyl)-9-[2-(1(S)-phenyl-ethylamino)-pyrimidin-4-yl]-6,7,8,9-tetrahydro-pyrimido[1,2-a]pyrimidin-4-one] the value was no more than 20 µM; for `C[C@H](Nc1nccc(N2CCCn3c2nc(-c2ccccc2C(F)(F)F)cc3=O)n1)c1ccccc1` [Example 3, 2-(2-trifluoromethylphenyl)-9-[2-(1(S)-phenyl-ethylamino) -pyrimidin-4-yl]-6,7,8,9-tetrahydro-pyrimido[1,2-a]pyrimidin-4-one], no more than 20 µM.
`C[C@H](Nc1nccc(N2CCCn3c2nc(-c2ccc(F)cc2)cc3=O)n1)c1ccccc1` [Example 4, 2-(4-fluorophenyl)-9-[2-(1(S)-phenyl-ethylamino)-pyrimidin-4-yl]-6,7,8,9-tetrahydro-pyrimido[1,2-a]pyrimidin-4-one]: the IC50 was no more than 20 µM.
In turn, `COc1ccc(-c2cc(=O)n3c(n2)N(c2ccnc(N[C@@H](C)c4ccccc4)n2)CCC3)cc1` [Example 5, 2-(4-methoxyphenyl)-9-[2-(1(S)-phenyl-ethylamino)-pyrimidin-4-yl]-6,7,8,9-tetrahydro-pyrimido[1,2-a]pyrimidin-4-one] returned an IC50 of no more than 20 µM.
For `C[C@H](Nc1nccc(N2CCCn3c2nc(-c2cccc([N+](=O)[O-])c2)cc3=O)n1)c1ccccc1` [Example 6, 2-(3-nitrophenyl)-9-[2-(1(S)-phenyl-ethylamino)-pyrimidin-4-yl]-6,7,8,9-tetrahydro-pyrimido[1,2-a]pyrimidin-4-one] the value was no more than 20 µM.
In the case of `C[C@H](Nc1nccc(N2CCCn3c2nc(-c2cccc(N)c2)cc3=O)n1)c1ccccc1` [Example 7, 2-(3-aminophenyl)-9-[2-(1(S)-phenyl-ethylamino)-pyrimidin-4-yl]-6,7,8,9-tetrahydro-pyrimido[1,2-a]pyrimidin-4-one], the half-inhibitory concentration (IC50) was no more than 20 µM.
In turn, `C[C@H](Nc1nccc(N2CCCn3c2nc(C(C)(C)C)cc3=O)n1)c1ccccc1` [Example 11, 2-(tert-butyl)-9-[2-(1(S)-phenyl-ethylamino)-pyrimidin-4-yl]-6,7,8,9-tetrahydro-pyrimido[1,2-a]pyrimidin-4-one] had a half-inhibitory concentration (IC50) of no more than 20 µM.
Compound `CCc1cccc(-c2cc(=O)n3c(n2)N(c2ccnc(N[C@@H](C)c4ccccc4)n2)CCC3)c1` [Example 12, 2-(3-ethylphenyl)-9-[2-(1(S)-phenyl-ethylamino)-pyrimidin-4-yl]-6,7,8,9-tetrahydro-pyrimido[1,2-a]pyrimidin-4-one] had an IC50 of no more than 20 µM.
`C[C@H](Nc1nccc(N2CCCn3c2nc(-c2ccc(Cl)c(Cl)c2)cc3=O)n1)c1ccccc1` [Example 13, 2-(3,4-dichlorophenyl)-9-[2-(1(S)-phenyl-ethylamino) -pyrimidin-4-yl]-6,7,8,9-tetrahydro-pyrimido[1,2-a]pyrimidin-4-one] gave an IC50 of no more than 20 µM.
`CC(Cc1cccc(CN)c1)Nc1nccc(N2CCCn3c2nc(-c2ccccc2)c(N)c3=O)n1` (stereo not drawn) [Example 14, 3-Amino-9-{2-[2-(3-aminomethyl-phenyl)-1-methyl-ethylamino]-pyrimidin-4-yl}-2-phenyl-6,7,8,9-tetrahydro-pyrimido[1,2-a]pyrimidin-4-one] displayed an IC50 of no more than 20 µM.
